What was measured:
[1] = biological target: Cyclin-dependent kinase 4 (Homo sapiens) (UniProt P11802); settings: Compound concentration 1000.0 nM
[2] = biological target: Tyrosine-protein kinase SYK (Homo sapiens) (UniProt P43405); settings: Compound concentration 1000.0 nM
[3] = biological target: Serine/threonine-protein kinase PAK 4 (Homo sapiens) (UniProt O96013); settings: Compound concentration 1000.0 nM
[4] = biological target: Mitogen-activated protein kinase kinase kinase 2 (Homo sapiens) (UniProt Q9Y2U5); settings: Compound concentration 1000.0 nM
[5] = biological target: Receptor tyrosine-protein kinase erbB-4 (Homo sapiens) (UniProt Q15303); settings: Compound concentration 1000.0 nM
[6] = biological target: Proto-oncogene tyrosine-protein kinase ROS (Homo sapiens) (UniProt P08922); settings: Compound concentration 1000.0 nM
[7] = biological target: Muscarinic acetylcholine receptor M4 (Homo sapiens) (UniProt P08173); settings: Compound concentration 10.0 uM
[8] = biological target: Activated CDC42 kinase 1 (Homo sapiens) (UniProt Q07912); settings: Compound concentration 1000.0 nM
[9] = biological target: Uncharacterized serine/threonine-protein kinase SBK3 (Homo sapiens) (UniProt P0C264); settings: Compound concentration 1000.0 nM
[10] = biological target: Serine/threonine-protein kinase WNK1 (Homo sapiens) (UniProt Q9H4A3); settings: Compound concentration 1000.0 nM
[11] = biological target: Rhodopsin kinase GRK1 (Homo sapiens) (UniProt Q15835); settings: Compound concentration 1000.0 nM
[12] = biological target: Phosphatidylinositol 5-phosphate 4-kinase type-2 beta (Homo sapiens) (UniProt P78356); settings: Compound concentration 1000.0 nM
[13] = biological target: Dual specificity protein kinase CLK1 (Homo sapiens) (UniProt P49759); settings: Compound concentration 1000.0 nM
[14] = biological target: Phosphatidylinositol 4,5-bisphosphate 3-kinase catalytic subunit alpha isoform (Homo sapiens) (UniProt P42336); settings: Compound concentration 1000.0 nM
[15] = test system: Receptor-type tyrosine-protein kinase FLT3 (Homo sapiens), P36888 [D835V]; settings: Compound concentration 1000.0 nM
[16] = biological target: Peripheral plasma membrane protein CASK (Homo sapiens) (UniProt O14936); settings: Compound concentration 1000.0 nM
[17] = biological target: Calcium-dependent protein kinase 1 (Plasmodium falciparum) (UniProt P62344); settings: Compound concentration 1000.0 nM
[18] = biological target: Serine/threonine-protein kinase Nek4 (Homo sapiens) (UniProt P51957); settings: Compound concentration 1000.0 nM
[19] = biological target: Discoidin domain-containing receptor 2 (Homo sapiens) (UniProt Q16832); settings: Compound concentration 1000.0 nM
[20] = test system: Phosphatidylinositol 4,5-bisphosphate 3-kinase catalytic subunit alpha isoform (Homo sapiens), P42336 [I800L]; settings: Compound concentration 1000.0 nM
[21] = biological target: Mitogen-activated protein kinase kinase kinase 5 (Homo sapiens) (UniProt Q99683); settings: Compound concentration 1000.0 nM
[22] = test system: ALK tyrosine kinase receptor (Homo sapiens), Q9UM73 [C1156Y]; settings: Compound concentration 1000.0 nM
[23] = biological target: Ephrin type-A receptor 6 (Homo sapiens) (UniProt Q9UF33); settings: Compound concentration 1000.0 nM
[24] = biological target: Receptor-interacting serine/threonine-protein kinase 1 (Homo sapiens) (UniProt Q13546); settings: Compound concentration 1000.0 nM
[25] = biological target: Fibroblast growth factor receptor 1 (Homo sapiens) (UniProt P11362); settings: Compound concentration 1000.0 nM
[26] = biological target: Tyrosine-protein kinase BTK (Homo sapiens) (UniProt Q06187); settings: Compound concentration 1000.0 nM
[27] = test system: Tyrosine-protein kinase ABL1 (Homo sapiens), P00519 [T315I]; settings: Compound concentration 1000.0 nM
[28] = biological target: Citron Rho-interacting kinase (Homo sapiens) (UniProt O14578); settings: Compound concentration 1000.0 nM
[29] = biological target: Serine/threonine-protein kinase TBK1 (Homo sapiens) (UniProt Q9UHD2); settings: Compound concentration 1000.0 nM
[30] = biological target: Serine/threonine-protein kinase 17B (Homo sapiens) (UniProt O94768); settings: Compound concentration 1000.0 nM
[31] = biological target: Serine/threonine-protein kinase D1 (Homo sapiens) (UniProt Q15139); settings: Compound concentration 1000.0 nM
[32] = biological target: Mitogen-activated protein kinase kinase kinase kinase 3 (Homo sapiens) (UniProt Q8IVH8); settings: Compound concentration 1000.0 nM
[33] = biological target: Phosphatidylinositol 5-phosphate 4-kinase type-2 gamma (Homo sapiens) (UniProt Q8TBX8); settings: Compound concentration 1000.0 nM
[34] = biological target: Receptor-type tyrosine-protein kinase FLT3 (Homo sapiens) (UniProt P36888); settings: Compound concentration 1000.0 nM
[35] = biological target: Wee1-like protein kinase 2 (Homo sapiens) (UniProt P0C1S8); settings: Compound concentration 1000.0 nM
[36] = biological target: Serine/threonine-protein kinase tousled-like 2 (Homo sapiens) (UniProt Q86UE8); settings: Compound concentration 1000.0 nM
[37] = biological target: Serine/threonine-protein kinase 10 (Homo sapiens) (UniProt O94804); settings: Compound concentration 1000.0 nM
[38] = biological target: Serine/threonine-protein kinase OSR1 (Homo sapiens) (UniProt O95747); settings: Compound concentration 1000.0 nM
[39] = biological target: Tyrosine-protein kinase Fyn (Homo sapiens) (UniProt P06241); settings: Compound concentration 1000.0 nM
[40] = biological target: Tyrosine-protein kinase Yes (Homo sapiens) (UniProt P07947); settings: Compound concentration 1000.0 nM
[41] = biological target: Ephrin type-A receptor 8 (Homo sapiens) (UniProt P29322); settings: Compound concentration 1000.0 nM
[42] = biological target: Myotonin-protein kinase (Homo sapiens) (UniProt Q09013); settings: Compound concentration 1000.0 nM
[43] = biological target: Casein kinase I isoform gamma-2 (Homo sapiens) (UniProt P78368); settings: Compound concentration 1000.0 nM
[44] = test system: Receptor-type tyrosine-protein kinase FLT3 (Homo sapiens), P36888 [UNDEFINED MUTATION]; settings: Compound concentration 1000.0 nM
[45] = test system: Epidermal growth factor receptor (Homo sapiens), P00533 [G719S]; settings: Compound concentration 1000.0 nM

Ephrin type-A receptor 8 (Homo sapiens), sequence (P29322 whole entry): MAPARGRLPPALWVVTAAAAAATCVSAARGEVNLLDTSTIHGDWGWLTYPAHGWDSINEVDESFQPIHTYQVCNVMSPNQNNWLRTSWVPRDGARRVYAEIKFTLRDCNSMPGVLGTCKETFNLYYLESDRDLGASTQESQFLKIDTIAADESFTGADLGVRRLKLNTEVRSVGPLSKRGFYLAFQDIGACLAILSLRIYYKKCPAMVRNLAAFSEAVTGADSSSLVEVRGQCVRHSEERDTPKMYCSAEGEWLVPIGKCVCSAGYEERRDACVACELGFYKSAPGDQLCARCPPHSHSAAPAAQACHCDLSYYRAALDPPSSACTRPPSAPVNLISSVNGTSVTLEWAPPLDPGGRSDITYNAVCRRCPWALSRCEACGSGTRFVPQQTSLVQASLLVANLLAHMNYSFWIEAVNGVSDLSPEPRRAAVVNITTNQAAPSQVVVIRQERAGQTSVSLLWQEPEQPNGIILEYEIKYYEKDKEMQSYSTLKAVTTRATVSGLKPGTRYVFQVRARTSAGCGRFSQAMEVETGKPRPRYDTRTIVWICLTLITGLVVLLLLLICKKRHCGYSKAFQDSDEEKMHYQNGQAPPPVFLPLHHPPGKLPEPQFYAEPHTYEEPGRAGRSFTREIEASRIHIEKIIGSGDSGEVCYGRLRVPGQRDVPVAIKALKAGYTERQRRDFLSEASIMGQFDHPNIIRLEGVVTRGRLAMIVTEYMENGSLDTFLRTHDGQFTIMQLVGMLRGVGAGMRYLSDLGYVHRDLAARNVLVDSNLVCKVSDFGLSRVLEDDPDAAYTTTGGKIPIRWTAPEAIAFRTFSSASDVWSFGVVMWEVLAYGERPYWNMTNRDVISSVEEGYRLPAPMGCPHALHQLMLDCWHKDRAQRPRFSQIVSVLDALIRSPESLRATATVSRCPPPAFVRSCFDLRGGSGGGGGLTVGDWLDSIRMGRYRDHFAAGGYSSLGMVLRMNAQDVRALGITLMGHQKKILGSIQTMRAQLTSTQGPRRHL
Discoidin domain-containing receptor 2 (Homo sapiens), sequence (Q16832 whole entry, the tested form may be a part, canonical isoform): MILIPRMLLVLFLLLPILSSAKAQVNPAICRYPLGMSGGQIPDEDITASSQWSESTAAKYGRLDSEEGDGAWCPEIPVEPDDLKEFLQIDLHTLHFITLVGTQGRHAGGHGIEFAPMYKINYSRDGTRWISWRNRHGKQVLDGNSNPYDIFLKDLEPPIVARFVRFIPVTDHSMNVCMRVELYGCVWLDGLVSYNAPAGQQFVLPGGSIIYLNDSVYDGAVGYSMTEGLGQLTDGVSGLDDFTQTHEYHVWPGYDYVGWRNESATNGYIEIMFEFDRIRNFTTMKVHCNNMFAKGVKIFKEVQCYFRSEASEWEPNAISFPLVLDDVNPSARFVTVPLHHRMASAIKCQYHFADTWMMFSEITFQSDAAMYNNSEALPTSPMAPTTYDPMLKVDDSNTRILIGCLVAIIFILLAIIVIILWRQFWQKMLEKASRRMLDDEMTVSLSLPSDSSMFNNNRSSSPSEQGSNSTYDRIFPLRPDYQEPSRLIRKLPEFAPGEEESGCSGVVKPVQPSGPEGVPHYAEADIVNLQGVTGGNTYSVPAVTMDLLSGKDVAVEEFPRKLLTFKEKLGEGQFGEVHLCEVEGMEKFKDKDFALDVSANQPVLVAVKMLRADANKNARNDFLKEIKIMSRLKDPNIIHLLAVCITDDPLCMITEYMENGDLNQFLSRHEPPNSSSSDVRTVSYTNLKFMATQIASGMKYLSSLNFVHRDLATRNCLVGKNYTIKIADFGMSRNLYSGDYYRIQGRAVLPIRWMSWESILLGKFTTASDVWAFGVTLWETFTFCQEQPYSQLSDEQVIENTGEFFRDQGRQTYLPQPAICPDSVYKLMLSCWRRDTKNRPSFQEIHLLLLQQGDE
Serine/threonine-protein kinase 17B (Homo sapiens), sequence (O94768 whole entry): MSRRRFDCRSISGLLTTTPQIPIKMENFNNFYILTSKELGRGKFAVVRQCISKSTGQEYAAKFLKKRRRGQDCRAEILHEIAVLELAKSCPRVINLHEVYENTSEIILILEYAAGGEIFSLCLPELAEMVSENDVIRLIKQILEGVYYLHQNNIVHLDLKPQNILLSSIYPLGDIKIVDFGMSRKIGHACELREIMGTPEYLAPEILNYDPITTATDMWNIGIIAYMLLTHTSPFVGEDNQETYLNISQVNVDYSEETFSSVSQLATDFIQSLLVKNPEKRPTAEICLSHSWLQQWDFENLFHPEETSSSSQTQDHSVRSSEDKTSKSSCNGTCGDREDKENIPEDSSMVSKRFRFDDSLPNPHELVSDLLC
Uncharacterized serine/threonine-protein kinase SBK3 (Homo sapiens), sequence (P0C264 whole entry): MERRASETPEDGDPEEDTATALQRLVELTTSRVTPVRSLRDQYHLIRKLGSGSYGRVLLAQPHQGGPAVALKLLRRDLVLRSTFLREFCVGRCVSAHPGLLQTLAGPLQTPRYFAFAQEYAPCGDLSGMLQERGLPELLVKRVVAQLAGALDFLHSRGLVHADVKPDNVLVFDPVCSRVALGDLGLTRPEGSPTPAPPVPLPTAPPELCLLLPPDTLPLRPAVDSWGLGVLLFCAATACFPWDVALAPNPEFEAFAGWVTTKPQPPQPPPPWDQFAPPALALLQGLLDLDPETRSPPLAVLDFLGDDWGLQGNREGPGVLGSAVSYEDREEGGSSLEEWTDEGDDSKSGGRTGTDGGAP
Mitogen-activated protein kinase kinase kinase 2 (Homo sapiens), sequence (Q9Y2U5 whole entry): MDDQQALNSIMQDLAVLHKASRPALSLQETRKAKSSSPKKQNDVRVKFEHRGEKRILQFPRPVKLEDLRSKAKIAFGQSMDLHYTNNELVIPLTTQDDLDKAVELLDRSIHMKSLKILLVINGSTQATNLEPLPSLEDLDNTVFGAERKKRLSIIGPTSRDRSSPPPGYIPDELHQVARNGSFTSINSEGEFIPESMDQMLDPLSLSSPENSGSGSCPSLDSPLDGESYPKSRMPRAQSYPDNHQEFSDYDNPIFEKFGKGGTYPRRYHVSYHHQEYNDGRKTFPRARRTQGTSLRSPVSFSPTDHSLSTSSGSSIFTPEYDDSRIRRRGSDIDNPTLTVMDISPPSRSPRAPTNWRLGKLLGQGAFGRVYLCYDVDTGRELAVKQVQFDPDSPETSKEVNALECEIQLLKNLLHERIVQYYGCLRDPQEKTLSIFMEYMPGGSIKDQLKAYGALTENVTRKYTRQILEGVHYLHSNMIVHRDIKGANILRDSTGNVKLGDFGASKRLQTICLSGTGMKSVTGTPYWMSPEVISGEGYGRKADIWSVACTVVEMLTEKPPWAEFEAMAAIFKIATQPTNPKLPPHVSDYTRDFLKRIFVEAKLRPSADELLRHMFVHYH
Activated CDC42 kinase 1 (Homo sapiens), sequence (Q07912 whole entry, looked up): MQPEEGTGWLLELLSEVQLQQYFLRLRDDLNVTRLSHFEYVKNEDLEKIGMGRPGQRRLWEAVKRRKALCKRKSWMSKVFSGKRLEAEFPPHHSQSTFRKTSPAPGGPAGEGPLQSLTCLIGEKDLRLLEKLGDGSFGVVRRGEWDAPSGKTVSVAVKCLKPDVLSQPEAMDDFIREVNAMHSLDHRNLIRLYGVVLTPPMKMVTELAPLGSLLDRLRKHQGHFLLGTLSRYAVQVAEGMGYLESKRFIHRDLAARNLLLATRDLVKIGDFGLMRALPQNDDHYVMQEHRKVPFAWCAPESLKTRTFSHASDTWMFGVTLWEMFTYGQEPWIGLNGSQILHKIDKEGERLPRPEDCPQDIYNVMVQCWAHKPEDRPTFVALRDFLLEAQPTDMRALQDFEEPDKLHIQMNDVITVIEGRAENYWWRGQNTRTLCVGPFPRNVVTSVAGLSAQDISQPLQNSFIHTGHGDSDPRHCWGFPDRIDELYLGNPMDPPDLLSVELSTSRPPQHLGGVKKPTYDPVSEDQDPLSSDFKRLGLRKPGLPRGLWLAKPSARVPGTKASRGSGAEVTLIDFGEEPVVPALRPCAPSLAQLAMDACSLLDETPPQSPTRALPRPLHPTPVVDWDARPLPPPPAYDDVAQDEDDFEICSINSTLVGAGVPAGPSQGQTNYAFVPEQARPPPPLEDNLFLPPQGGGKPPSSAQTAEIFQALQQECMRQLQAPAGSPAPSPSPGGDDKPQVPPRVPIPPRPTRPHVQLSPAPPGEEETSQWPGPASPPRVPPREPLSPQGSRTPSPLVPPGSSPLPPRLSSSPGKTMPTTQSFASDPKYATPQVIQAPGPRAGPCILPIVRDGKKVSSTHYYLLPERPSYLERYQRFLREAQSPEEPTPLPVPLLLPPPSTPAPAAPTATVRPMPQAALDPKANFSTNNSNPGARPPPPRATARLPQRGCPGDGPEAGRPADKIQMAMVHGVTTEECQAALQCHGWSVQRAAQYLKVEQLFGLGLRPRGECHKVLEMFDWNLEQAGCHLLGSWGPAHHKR
Rhodopsin kinase GRK1 (Homo sapiens), sequence (Q15835 whole entry): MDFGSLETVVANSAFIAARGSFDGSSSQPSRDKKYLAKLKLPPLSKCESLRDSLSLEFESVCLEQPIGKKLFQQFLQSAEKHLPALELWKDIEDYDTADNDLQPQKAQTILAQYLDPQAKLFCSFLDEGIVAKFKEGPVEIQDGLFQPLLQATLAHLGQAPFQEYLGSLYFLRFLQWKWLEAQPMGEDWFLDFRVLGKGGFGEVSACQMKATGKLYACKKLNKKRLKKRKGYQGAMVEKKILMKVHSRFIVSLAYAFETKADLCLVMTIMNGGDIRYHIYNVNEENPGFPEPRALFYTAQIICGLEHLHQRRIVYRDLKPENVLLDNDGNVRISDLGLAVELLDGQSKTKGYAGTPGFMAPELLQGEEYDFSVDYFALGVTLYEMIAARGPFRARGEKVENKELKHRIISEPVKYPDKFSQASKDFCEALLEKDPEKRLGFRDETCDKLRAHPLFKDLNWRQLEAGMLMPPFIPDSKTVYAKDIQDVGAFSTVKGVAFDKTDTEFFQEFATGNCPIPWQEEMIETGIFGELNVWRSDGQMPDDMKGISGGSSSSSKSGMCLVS

Compound: Cn1nc(C(F)(F)F)cc1-c1cnc(N2CCc3cc(S(=O)(=O)Nc4c(F)cc(Cl)cc4F)cc(N4CCCC4=O)c32)nc1 [TP-020]
- residual activity [1]: 82%
- residual activity [2]: 100%
- residual activity [3]: 100%
- residual activity [4]: 95%
- residual activity [5]: 94%
- residual activity [6]: 100%
- inhibition [7]: 41.2%
- residual activity [8]: 100%
- residual activity [9]: 79%
- residual activity [10]: 98%
- residual activity [11]: 95%
- residual activity [12]: 100%
- residual activity [13]: 87%
- residual activity [14]: 100%
- residual activity [15]: 91%
- residual activity [16]: 77%
- residual activity [17]: 70%
- residual activity [18]: 72%
- residual activity [19]: 80%
- residual activity [20]: 77%
- residual activity [21]: 100%
- residual activity [22]: 72%
- residual activity [23]: 89%
- residual activity [24]: 100%
- residual activity [25]: 99%
- residual activity [26]: 85%
- residual activity [27]: 82%
- residual activity [28]: 100%
- residual activity [29]: 95%
- residual activity [30]: 100%
- residual activity [31]: 80%
- residual activity [32]: 84%
- residual activity [33]: 66%
- residual activity [34]: 100%
- residual activity [35]: 100%
- residual activity [36]: 94%
- residual activity [37]: 94%
- residual activity [38]: 99%
- residual activity [39]: 94%
- residual activity [40]: 99%
- residual activity [41]: 65%
- residual activity [42]: 82%
- residual activity [43]: 100%
- residual activity [44]: 32%
- residual activity [45]: 100%

Compound: Nc1cnc(N2CCc3cc(S(=O)(=O)Nc4c(F)cc(Cl)cc4F)cc(N4CCCC4=O)c32)nc1
- residual activity [1]: 86%
- residual activity [2]: 100%
- residual activity [3]: 89%
- residual activity [4]: 100%
- residual activity [5]: 100%
- residual activity [6]: 99%
- inhibition [7]: 9.99%
- residual activity [8]: 91%
- residual activity [9]: 100%
- residual activity [10]: 100%
- residual activity [11]: 100%
- residual activity [12]: 100%
- residual activity [13]: 85%
- residual activity [14]: 76%
- residual activity [15]: 100%
- residual activity [16]: 94%
- residual activity [17]: 97%
- residual activity [18]: 97%
- residual activity [19]: 100%
- residual activity [20]: 80%
- residual activity [21]: 83%
- residual activity [22]: 100%
- residual activity [23]: 98%
- residual activity [24]: 92%
- residual activity [25]: 88%
- residual activity [26]: 100%
- residual activity [27]: 98%
- residual activity [28]: 91%
- residual activity [29]: 85%
- residual activity [30]: 100%
- residual activity [31]: 83%
- residual activity [32]: 93%
- residual activity [33]: 100%
- residual activity [34]: 91%
- residual activity [35]: 93%
- residual activity [36]: 79%
- residual activity [37]: 100%
- residual activity [38]: 75%
- residual activity [39]: 58%
- residual activity [40]: 100%
- residual activity [41]: 100%
- residual activity [42]: 100%
- residual activity [43]: 88%
- residual activity [44]: 96%
- residual activity [45]: 75%

Reference: ChEMBL document CHEMBL4507302, “Data for DCP probe TP-020” (2021)
